In patent US7704995B2 (Exelixis, Inc., priority 2003, dated 2010):

Legend:
Assay in all cases: Kinase specificity assay (33P phosphoryl transfer, LCCA or AlphaScreen)
Format in all cases: biochemical
PLK = PLK (Homo sapiens, UniProt P53350); conditions: ATP close to KM; read-out: PLK inhibition, IC50
FGFR1 = FGFR1 (Homo sapiens, UniProt P11362); conditions: ATP close to KM; read-out: FGFR1 inhibition, IC50
EGFR = EGFR (Homo sapiens, UniProt P00533); conditions: ATP close to KM; read-out: EGFR inhibition, IC50
Chain of EGFR (P00533 25-1210): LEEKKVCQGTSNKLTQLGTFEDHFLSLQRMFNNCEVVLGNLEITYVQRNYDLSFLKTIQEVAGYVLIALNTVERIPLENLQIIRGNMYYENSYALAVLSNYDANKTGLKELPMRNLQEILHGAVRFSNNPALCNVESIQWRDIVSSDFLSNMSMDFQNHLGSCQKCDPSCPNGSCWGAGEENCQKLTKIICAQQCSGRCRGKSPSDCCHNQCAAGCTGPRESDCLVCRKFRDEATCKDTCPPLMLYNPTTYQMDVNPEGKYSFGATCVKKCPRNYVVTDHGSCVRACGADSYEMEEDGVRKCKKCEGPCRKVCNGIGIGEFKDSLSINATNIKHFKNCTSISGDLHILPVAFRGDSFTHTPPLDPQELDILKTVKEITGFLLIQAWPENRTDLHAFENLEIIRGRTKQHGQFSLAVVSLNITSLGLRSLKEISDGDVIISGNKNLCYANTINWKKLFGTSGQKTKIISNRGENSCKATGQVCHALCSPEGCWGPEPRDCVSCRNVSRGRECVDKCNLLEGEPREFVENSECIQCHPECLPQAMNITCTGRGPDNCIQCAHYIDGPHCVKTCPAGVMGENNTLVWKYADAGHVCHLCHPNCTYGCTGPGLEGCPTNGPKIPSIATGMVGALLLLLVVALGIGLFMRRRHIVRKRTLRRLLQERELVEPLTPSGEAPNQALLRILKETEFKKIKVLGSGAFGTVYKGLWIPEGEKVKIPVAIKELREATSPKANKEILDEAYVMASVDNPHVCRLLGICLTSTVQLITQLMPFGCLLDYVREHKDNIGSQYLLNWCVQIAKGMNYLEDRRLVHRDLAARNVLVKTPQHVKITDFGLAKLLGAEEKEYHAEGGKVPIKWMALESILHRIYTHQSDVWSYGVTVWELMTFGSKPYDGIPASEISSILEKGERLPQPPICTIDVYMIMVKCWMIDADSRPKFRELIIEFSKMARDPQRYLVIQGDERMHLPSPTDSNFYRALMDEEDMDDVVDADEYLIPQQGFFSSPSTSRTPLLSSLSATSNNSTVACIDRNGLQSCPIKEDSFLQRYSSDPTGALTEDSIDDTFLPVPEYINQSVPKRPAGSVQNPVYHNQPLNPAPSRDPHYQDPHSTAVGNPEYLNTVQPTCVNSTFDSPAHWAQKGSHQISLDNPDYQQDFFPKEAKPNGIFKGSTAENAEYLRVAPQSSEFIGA

PKCe = molecular target: T1, PKCe (Homo sapiens, UniProt Q02156); conditions: ATP close to KM; read-out: PKCe inhibition, IC50
T1 sequence (Q02156 1-737): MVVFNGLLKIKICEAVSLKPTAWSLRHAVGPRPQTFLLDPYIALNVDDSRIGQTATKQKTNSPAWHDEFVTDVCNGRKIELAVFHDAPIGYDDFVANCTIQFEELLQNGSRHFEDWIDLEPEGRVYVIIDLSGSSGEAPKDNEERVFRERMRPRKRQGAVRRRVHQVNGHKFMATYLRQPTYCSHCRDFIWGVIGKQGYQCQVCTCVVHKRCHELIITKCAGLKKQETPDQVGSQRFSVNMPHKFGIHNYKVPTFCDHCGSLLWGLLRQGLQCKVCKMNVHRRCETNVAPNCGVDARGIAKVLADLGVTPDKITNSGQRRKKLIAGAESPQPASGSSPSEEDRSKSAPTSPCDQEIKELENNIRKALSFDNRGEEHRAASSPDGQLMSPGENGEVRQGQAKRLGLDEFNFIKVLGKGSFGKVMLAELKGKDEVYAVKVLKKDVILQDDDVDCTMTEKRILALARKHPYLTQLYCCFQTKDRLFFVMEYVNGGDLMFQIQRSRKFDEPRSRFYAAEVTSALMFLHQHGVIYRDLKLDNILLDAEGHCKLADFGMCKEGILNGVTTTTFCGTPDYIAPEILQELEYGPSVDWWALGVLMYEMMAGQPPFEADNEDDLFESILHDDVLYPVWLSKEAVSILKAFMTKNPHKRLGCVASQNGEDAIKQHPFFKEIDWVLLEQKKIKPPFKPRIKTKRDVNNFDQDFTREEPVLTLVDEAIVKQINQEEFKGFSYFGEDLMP

PDGFR-β = PDGFR-β (Homo sapiens, UniProt P09619); conditions: ATP close to KM; read-out: PDGFR-β inhibition, IC50
IRK = IRK (Homo sapiens, UniProt P06213); conditions: ATP close to KM; read-out: IRK inhibition, IC50
Chain of IRK (P06213 28-1382): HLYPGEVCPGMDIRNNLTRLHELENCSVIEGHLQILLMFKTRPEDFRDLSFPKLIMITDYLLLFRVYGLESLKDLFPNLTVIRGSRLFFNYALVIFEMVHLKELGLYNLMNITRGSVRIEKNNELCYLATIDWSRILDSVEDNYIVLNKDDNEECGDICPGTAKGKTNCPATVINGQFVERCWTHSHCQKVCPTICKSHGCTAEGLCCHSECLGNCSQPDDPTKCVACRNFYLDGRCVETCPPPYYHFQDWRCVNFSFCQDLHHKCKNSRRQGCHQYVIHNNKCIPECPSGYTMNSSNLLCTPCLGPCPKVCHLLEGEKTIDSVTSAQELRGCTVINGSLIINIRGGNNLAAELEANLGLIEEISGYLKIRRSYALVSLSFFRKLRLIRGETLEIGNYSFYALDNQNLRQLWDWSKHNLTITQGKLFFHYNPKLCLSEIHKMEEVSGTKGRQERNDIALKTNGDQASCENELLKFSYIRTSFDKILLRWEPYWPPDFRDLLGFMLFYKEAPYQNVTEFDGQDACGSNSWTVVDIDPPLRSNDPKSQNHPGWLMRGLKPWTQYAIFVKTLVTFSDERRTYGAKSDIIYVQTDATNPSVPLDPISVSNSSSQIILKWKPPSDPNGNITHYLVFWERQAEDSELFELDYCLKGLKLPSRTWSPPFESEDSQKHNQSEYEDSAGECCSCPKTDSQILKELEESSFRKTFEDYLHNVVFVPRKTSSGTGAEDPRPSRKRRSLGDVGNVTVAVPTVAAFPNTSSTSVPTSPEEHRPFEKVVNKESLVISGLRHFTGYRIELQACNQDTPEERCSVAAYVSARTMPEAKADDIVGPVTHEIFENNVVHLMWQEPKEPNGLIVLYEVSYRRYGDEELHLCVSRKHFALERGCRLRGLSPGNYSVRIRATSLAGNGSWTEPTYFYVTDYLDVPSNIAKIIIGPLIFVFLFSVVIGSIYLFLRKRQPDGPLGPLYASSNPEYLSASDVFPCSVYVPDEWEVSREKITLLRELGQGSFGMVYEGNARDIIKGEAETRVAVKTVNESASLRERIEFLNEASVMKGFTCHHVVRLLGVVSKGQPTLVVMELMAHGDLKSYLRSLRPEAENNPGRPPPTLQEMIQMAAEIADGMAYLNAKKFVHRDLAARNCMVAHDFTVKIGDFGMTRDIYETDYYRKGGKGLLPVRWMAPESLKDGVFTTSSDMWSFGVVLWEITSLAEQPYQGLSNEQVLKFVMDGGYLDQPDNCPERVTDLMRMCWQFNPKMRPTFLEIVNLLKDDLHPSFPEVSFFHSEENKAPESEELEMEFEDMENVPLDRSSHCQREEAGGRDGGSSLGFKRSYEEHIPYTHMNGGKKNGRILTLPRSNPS

Cdc2 = Cdc2 (Homo sapiens, UniProt P06493); conditions: ATP close to KM; read-out: Cdc2 inhibition, IC50
Chain of Cdc2 (P06493 whole entry): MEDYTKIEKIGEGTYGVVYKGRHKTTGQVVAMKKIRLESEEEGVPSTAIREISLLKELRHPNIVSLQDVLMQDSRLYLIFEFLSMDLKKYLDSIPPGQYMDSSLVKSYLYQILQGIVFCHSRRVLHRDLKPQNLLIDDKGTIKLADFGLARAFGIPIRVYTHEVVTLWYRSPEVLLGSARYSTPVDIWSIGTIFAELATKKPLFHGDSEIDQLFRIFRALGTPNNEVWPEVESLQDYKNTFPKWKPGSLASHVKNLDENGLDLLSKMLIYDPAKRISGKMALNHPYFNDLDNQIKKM
Chain of Cdc2 (P14635 whole entry partner): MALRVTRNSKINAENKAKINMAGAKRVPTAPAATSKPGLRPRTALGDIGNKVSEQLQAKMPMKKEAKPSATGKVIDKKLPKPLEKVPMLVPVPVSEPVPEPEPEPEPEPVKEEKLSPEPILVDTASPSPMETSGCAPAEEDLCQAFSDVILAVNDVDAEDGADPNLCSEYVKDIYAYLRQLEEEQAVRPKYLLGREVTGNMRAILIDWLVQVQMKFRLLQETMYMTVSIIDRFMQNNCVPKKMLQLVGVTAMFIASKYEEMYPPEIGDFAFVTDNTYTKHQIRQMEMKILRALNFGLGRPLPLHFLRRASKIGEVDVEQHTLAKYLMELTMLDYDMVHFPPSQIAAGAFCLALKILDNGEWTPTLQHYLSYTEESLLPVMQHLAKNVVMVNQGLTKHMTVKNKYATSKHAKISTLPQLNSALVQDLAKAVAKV

Chain of PLK (P53350 whole entry): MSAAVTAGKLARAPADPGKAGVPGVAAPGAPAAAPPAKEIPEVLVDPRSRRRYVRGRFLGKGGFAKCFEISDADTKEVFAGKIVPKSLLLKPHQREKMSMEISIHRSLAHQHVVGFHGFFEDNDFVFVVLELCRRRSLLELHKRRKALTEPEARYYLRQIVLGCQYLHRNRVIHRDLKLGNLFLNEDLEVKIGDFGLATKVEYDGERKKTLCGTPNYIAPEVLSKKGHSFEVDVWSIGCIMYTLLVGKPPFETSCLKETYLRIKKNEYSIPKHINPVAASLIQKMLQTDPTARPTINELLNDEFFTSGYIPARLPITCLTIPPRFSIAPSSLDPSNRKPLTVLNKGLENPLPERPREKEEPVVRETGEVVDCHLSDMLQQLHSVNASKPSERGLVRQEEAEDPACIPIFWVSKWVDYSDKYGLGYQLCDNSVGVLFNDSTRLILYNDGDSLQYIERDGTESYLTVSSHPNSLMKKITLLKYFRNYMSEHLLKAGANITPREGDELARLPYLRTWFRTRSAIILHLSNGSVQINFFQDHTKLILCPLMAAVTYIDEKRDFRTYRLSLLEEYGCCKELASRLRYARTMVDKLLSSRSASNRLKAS
Chain of FGFR1 (P11362 22-822): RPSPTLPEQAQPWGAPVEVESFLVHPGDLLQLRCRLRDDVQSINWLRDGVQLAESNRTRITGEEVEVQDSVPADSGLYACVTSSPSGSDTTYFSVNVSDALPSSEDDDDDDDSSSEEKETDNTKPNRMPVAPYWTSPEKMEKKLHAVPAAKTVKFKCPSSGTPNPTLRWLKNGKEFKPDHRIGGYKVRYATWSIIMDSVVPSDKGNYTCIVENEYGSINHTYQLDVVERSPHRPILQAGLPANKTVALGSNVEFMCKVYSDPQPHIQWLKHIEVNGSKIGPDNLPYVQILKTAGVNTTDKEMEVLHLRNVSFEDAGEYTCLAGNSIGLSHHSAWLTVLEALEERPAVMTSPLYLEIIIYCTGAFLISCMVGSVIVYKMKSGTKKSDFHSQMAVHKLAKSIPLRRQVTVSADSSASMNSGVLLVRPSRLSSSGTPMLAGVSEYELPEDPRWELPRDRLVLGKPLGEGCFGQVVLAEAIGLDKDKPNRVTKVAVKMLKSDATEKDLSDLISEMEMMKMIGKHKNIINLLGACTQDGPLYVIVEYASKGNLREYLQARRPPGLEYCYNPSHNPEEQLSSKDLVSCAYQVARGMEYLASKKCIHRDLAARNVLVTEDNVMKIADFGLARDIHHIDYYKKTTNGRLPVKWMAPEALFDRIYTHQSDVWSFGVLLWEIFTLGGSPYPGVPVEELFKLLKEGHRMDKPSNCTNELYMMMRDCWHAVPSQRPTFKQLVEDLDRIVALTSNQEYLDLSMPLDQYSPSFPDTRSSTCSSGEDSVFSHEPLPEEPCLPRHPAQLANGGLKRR

## NC(=O)c1nc(-c2cccc3ccccc23)cnc1N [Example 2, 3-Amino-6-naphthalen-1-ylpyrazine-2-carboxamide]
PLK
  IC50: 1 to 10 µM
FGFR1
  IC50: 1 to 10 µM
EGFR
  IC50: ≥ 10 µM
PKCe
  IC50: ≥ 10 µM
PDGFR-β
  IC50: 0.05 to 1 µM
IRK
  IC50: ≥ 10 µM
Cdc2
  IC50: ≥ 10 µM
